Results as given in ChEMBL document CHEMBL1201862, “PubChem BioAssay data set” (2004).
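Cultured in 96-well plates, cells were exposed to test compound for 48 hours across five concentrations. Here, GI50 denotes the concentration required for 50% inhibition of growth.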 Calls of active or inactive are those of the source. Rule as the data show it: active = GI50 up to about 1.1 µM and inactive = higher.

Legend:
Assay in all cases: NCI tumour cell line growth inhibition, 48 h
[1] = test system: MDA-MB-435
[2] = test system: NCI-H226
[3] = test system: U-251
[4] = test system: SNB-75
[5] = test system: SK-MEL-5
[6] = test system: RXF 393
[7] = test system: UACC-62
[8] = test system: IGROV-1
[9] = test system: SK-MEL-28
[10] = test system: 786-0
[11] = test system: SF-539
[12] = test system: COLO 205
[13] = test system: UO-31
[14] = test system: OVCAR-4
[15] = test system: HCT-15
[16] = test system: SNB-19
[17] = test system: SK-OV-3
[18] = test system: PC-3
[19] = test system: ACHN
[20] = test system: Malme-3M

SMILES | GI50 [1] | GI50 [2] | GI50 [3] | GI50 [4] | GI50 [5] | GI50 [6] | GI50 [7] | GI50 [8] | GI50 [9] | GI50 [10] | GI50 [11] | GI50 [12] | GI50 [13] | GI50 [14] | GI50 [15] | GI50 [16] | GI50 [17] | GI50 [18] | GI50 [19] | GI50 [20]
COC(=O)C(Cc1ccc(OC)cc1O)NC(=O)OC(C)(C)C (centres undefined) | > 100 µM (inactive) | > 100 µM (inactive) | > 100 µM (inactive) | > 100 µM (inactive) | 61.7 µM (inactive) | > 100 µM (inactive) | > 100 µM (inactive) | > 100 µM (inactive) | > 100 µM (inactive) | > 100 µM (inactive) | > 100 µM (inactive) | > 100 µM (inactive) | > 100 µM (inactive) | > 100 µM (inactive) | > 100 µM | > 100 µM (inactive) | > 100 µM (inactive) | > 100 µM (inactive) | > 100 µM (inactive) | 78.5 µM (inactive)
CCN(CC)C(=S)SNCCc1ccc(S(N)(=O)=O)cc1 | 14.7 µM (inactive) | 42.7 µM (inactive) | 15.5 µM (inactive) | 13.9 µM (inactive) | 11.2 µM (inactive) | 7.57 µM (inactive) | 16.9 µM (inactive) | – | 9.23 µM (inactive) | 14.7 µM (inactive) | 14.1 µM (inactive) | 29.2 µM (inactive) | 13.1 µM (inactive) | 14.4 µM (inactive) | 16.8 µM | 20 µM (inactive) | 25.4 µM (inactive) | 13.9 µM (inactive) | 17.9 µM (inactive) | 12 µM (inactive)
O=C1CC2C(=O)C1C(C(=O)O)C2C(=O)O (centres undefined) | > 100 µM (inactive) | > 100 µM (inactive) | > 100 µM (inactive) | – | > 100 µM (inactive) | > 100 µM (inactive) | > 100 µM (inactive) | > 100 µM (inactive) | > 100 µM (inactive) | > 100 µM (inactive) | > 100 µM (inactive) | > 100 µM (inactive) | > 100 µM (inactive) | > 100 µM (inactive) | > 100 µM | > 100 µM (inactive) | > 100 µM (inactive) | > 100 µM (inactive) | > 100 µM (inactive) | > 100 µM (inactive)
CCOC(=O)C(=[N+]=[N-])C(=O)CSC#N | 22.6 µM (inactive) | 40.6 µM (inactive) | 46.5 µM (inactive) | – | 35.5 µM (inactive) | > 100 µM (inactive) | 69.5 µM (inactive) | > 100 µM (inactive) | > 100 µM (inactive) | > 100 µM (inactive) | 21.3 µM (inactive) | > 100 µM (inactive) | 31.2 µM (inactive) | 40.6 µM (inactive) | 51.4 µM | 97.5 µM (inactive) | > 100 µM (inactive) | > 100 µM (inactive) | 22.3 µM (inactive) | 55 µM (inactive)
Cc1ccc(-c2c(C#N)c(O)n(NS(=O)(=O)c3ccccc3)c(=O)c2C#N)cc1 | > 100 µM (inactive) | > 100 µM (inactive) | > 100 µM (inactive) | > 100 µM (inactive) | 68.5 µM (inactive) | > 100 µM (inactive) | > 100 µM (inactive) | > 100 µM (inactive) | > 100 µM (inactive) | > 100 µM (inactive) | > 100 µM (inactive) | > 100 µM (inactive) | – | > 100 µM (inactive) | > 100 µM | > 100 µM (inactive) | > 100 µM (inactive) | > 100 µM (inactive) | > 100 µM (inactive) | > 100 µM (inactive)
c1ccc2c3c([nH]c2c1)C1c2[nH]c4ccccc4c2CCN1CC3 | 15.2 µM (inactive) | 14.7 µM (inactive) | – | 16.7 µM (inactive) | 13.6 µM (inactive) | 13.6 µM (inactive) | 16.7 µM (inactive) | 12.7 µM (inactive) | 15.2 µM (inactive) | 12.6 µM (inactive) | 17.5 µM (inactive) | 3.79 µM (inactive) | 5.62 µM (inactive) | 4.49 µM (inactive) | 11 µM | – | 14.1 µM (inactive) | 12.9 µM (inactive) | 13.8 µM (inactive) | 15.1 µM (inactive)
